Results from ChEMBL document CHEMBL4342426, “Structure-activity relationship of 4-azaindole-2-piperidine derivatives as agents against Trypanosoma cruzi” (Bioorg Med Chem Lett, 2020).

Key:
[1] = cells; settings: Homo sapiens, MRC-5 SV2, 72 h
Description: (§1) Cytotoxicity against human MRC5 SV2 cells assessed as reduction in cell viability incubated for 3 days by fluorimetry

[2] = tested on: Macrophage; assay: cells; settings: Mus musculus, 72 h
Description: (§2) Cytotoxicity against mouse peritoneal Macrophage cells assessed as reduction in cell viability incubated for 3 days by fluorimetry

[3] = in vitro; settings: human, MRC5 SV2 cells
Description: as §1

[4] = in vitro; settings: human, liver microsomes
Description: Metabolic stability in human liver microsomes assessed as intrinsic clearance at 0.5 uM incubated for 30 mins by LC-MS/MS analysis

[5] = physchem; settings: buffer, pH 7.4
Description: Lipophilicity, logD of compound at pH 7.4 by HPLC analysis

[6] = in vitro; settings: mouse, peritoneal macrophages
Description: as §2

[7] = in vitro; settings: PAMPA
Description: Effective permeability of compound by PAMPA assay

[8] = in vitro; settings: mouse, peritoneal macrophages; remark: listed apart in the source
Description: Selectivity index, ratio of IC50 for mouse peritoneal macrophage to IC50 for Leishmania infantum MHOM/MA(BE)/67/ITMAP263 infected in mouse peritoneal macrophage

[9] = in vitro; settings: mouse, liver microsomes
Description: Metabolic stability in mouse liver microsomes assessed as fraction unbound at 0.5 uM incubated for 30 mins by LC-MS/MS analysis

[10] = tested on: Trypanosoma cruzi; assay: microbe, parasite or virus in culture; settings: Tulahuen CL2, MRC-5 SV2, 168 h
Description: Antitrypanosomal activity against Trypanosoma cruzi Tulahuen CL2 amastigotes infected in human MRC5 SV2 cells incubated for 7 days by chlorophenol red beta-D-galactopyranoside substrate based spectrophotometric assay

[11] = tested on: Trypanosoma brucei; assay: microbe, parasite or virus in culture; settings: Squib 427, 72 h
Description: Antitrypanosomal activity against Trypanosoma brucei Squib 427 assessed as reduction in parasite growth incubated for 72 hrs by resazurin dye based fluorimetric analysis

[12] = tested on: Trypanosoma brucei rhodesiense; assay: microbe, parasite or virus in culture; settings: STIB900, 72 h
Description: Antiprotozoal activity against Trypanosoma brucei rhodesiense STIB900 trypomastigotes incubated for 72 hrs by resazurin dye based fluorimetric analysis

[13] = tested on: Leishmania infantum; assay: microbe, parasite or virus in culture; settings: for IC50: MHOM/MA(BE)/67/ITMAP263, 120 h; for IC90: MHOM/MA(BE)/67/ITMAP263, in Mus musculus, 120 h
Description: Antileishmanial activity against amastigote stage of Leishmania infantum MHOM/MA(BE)/67/ITMAP263 infected in mouse peritoneal macrophage assessed as parasite growth inhibition incubated for 5 days by Giemsa staining based assay

[14] = in vitro; settings: mouse, liver microsomes; remark: listed apart in the source
Description: Metabolic stability in mouse liver microsomes assessed as intrinsic clearance at 0.5 uM incubated for 30 mins by LC-MS/MS analysis

[15] = in vitro; settings: human, MRC5 SV2 cells; remark: listed apart in the source
Description: Selectivity index, ratio of IC50 for human MRC5 SV2 cells to IC50 for Trypanosoma cruzi Tulahuen CL2 amastigotes infected in human MRC5 SV2 cells

[16] = in vitro; settings: human, MRC5 SV2 cells; remark: listed apart in the source
Description: Selectivity index, ratio of IC50 for human MRC5 SV2 cells to IC50 for Trypanosoma brucei rhodesiense STIB900 trypomastigotes

Compound: O=C(c1cc(C(F)(F)F)no1)N1CCCC(c2cc3ncc(-c4ccccc4)cc3[nH]2)C1 (centres undefined)
- IC50 [1]: 64 µM
- IC50 [2]: 45.3 µM
- IC90 at 72 h [3]: 64 µM
- CLint scaled at 0.5 h, 0.5 µM [4]: 1350 mL/min/kg
- microsomal CLint at 0.5 h, 0.5 µM [4]: 196 µL/min/mg
- logD [5]: 4.59
- IC90 at 72 h [6]: 59.7 µM
- Papp [7]: 0.307 ×10⁻⁶ cm/s
- selectivity ratio [8]: 1.79
- fraction unbound at 0.5 h, 0.5 µM [9]: 0.157
- IC50 [10]: 64 µM
- IC90 [10]: 64 µM
- IC50 [11]: 64 µM
- IC90 [11]: 64 µM
- IC50 [12]: 64 µM
- IC90 [12]: 64 µM
- IC50 [13]: 35.1 µM
- IC90 [13]: 59.6 µM

Compound: O=C(c1cc(C(F)(F)F)no1)N1CCCC(c2cc3ncccc3[nH]2)C1 (centres undefined)
- IC50 [1]: 64 µM
- IC50 [2]: 64 µM
- IC90 at 72 h [3]: 64 µM
- CLint scaled at 0.5 h, 0.5 µM [4]: 323 mL/min/kg
- microsomal CLint at 0.5 h, 0.5 µM [4]: 184 µL/min/mg
- CLint scaled at 0.5 h, 0.5 µM [14]: 2330 mL/min/kg
- microsomal CLint at 0.5 h, 0.5 µM [14]: 449 µL/min/mg
- logD [5]: 3.42
- selectivity ratio [15]: 15.7
- IC90 at 72 h [6]: 64 µM
- selectivity ratio [16]: 1.61
- Papp [7]: 3.45 ×10⁻⁶ cm/s
- fraction unbound at 0.5 h, 0.5 µM [9]: 0.615
- IC50 [10]: 4.08 µM
- IC90 [10]: 45.3 µM
- IC50 [11]: 64 µM
- IC90 [11]: 64 µM
- IC50 [12]: 40.4 µM
- IC90 [12]: 60.9 µM
- IC50 [13]: 64 µM
- IC90 [13]: 64 µM

Compound: COc1ccc(OC)c2[nH]c(C(=O)N3CCCC(c4cc5ncccc5[nH]4)C3)cc12 (centres undefined)
- IC50 [1]: 22.6 µM
- IC50 [2]: 32 µM
- IC90 at 72 h [3]: 29.9 µM
- CLint scaled at 0.5 h, 0.5 µM [4]: 235 mL/min/kg
- CLint scaled at 0.5 h, 0.5 µM [14]: 9620 mL/min/kg
- selectivity ratio [15]: 18.9
- IC90 at 72 h [6]: 32 µM
- selectivity ratio [16]: 2.36
- selectivity ratio [8]: 2.35
- IC50 [10]: 1.2 µM
- IC90 [10]: 6.67 µM
- IC50 [11]: 20.5 µM
- IC90 [11]: 29.9 µM
- IC50 [12]: 9.55 µM
- IC90 [12]: 25.6 µM
- IC50 [13]: 9.59 µM
- IC90 [13]: 32 µM

Compound: CC(C)(C)c1cc(C(=O)N2CCCC(c3cc4ncccc4[nH]3)C2)on1 (centres undefined)
- IC50 [1]: 64 µM
- IC50 [2]: 64 µM
- IC90 at 72 h [3]: 64 µM
- CLint scaled at 0.5 h, 0.5 µM [4]: 321 mL/min/kg
- microsomal CLint at 0.5 h, 0.5 µM [4]: 177 µL/min/mg
- CLint scaled at 0.5 h, 0.5 µM [14]: 2150 mL/min/kg
- microsomal CLint at 0.5 h, 0.5 µM [14]: 403 µL/min/mg
- logD [5]: 3.4
- selectivity ratio [15]: 29.4
- IC90 at 72 h [6]: 64 µM
- selectivity ratio [16]: 1.83
- Papp [7]: 2.97 ×10⁻⁶ cm/s
- fraction unbound at 0.5 h, 0.5 µM [9]: 0.598
- IC50 [10]: 2.18 µM
- IC90 [10]: 64 µM
- IC50 [11]: 64 µM
- IC90 [11]: 64 µM
- IC50 [12]: 34.7 µM
- IC90 [12]: 64 µM
- IC50 [13]: 64 µM
- IC90 [13]: 64 µM

Compound: CCC(=O)N1CCCC(c2nc3ncc(Cl)cc3[nH]2)C1 (centres undefined)
- IC50 [1]: 64 µM
- IC50 [2]: 64 µM
- IC90 at 72 h [3]: 64 µM
- CLint scaled at 0.5 h, 0.5 µM [4]: < 28.3 mL/min/kg
- microsomal CLint at 0.5 h, 0.5 µM [4]: < 23 µL/min/mg
- CLint scaled at 0.5 h, 0.5 µM [14]: 472 mL/min/kg
- microsomal CLint at 0.5 h, 0.5 µM [14]: 128 µL/min/mg
- logD [5]: 2.17
- IC90 at 72 h [6]: 64 µM
- selectivity ratio [16]: 1.53
- Papp [7]: 9.01 ×10⁻⁶ cm/s
- fraction unbound at 0.5 h, 0.5 µM [9]: 0.866
- IC50 [10]: 64 µM
- IC90 [10]: 64 µM
- IC50 [11]: 64 µM
- IC90 [11]: 64 µM
- IC50 [12]: 41.9 µM
- IC90 [12]: 64 µM
- IC50 [13]: 64 µM
- IC90 [13]: 64 µM

Compound: COc1cc(OC)c2cc(C(=O)N3CCCC(c4cc5ncccc5[nH]4)C3)[nH]c2c1 (centres undefined)
- IC50 [1]: 19.5 µM
- IC50 [2]: 22.6 µM
- IC90 at 72 h [3]: 29.5 µM
- CLint scaled at 0.5 h, 0.5 µM [4]: 838 mL/min/kg
- CLint scaled at 0.5 h, 0.5 µM [14]: 2420 mL/min/kg
- selectivity ratio [15]: 18.8
- IC90 at 72 h [6]: 29.9 µM
- selectivity ratio [16]: 2.65
- selectivity ratio [8]: 1.07
- IC50 [10]: 1.03 µM
- IC90 [10]: 3.13 µM
- IC50 [11]: 19.6 µM
- IC90 [11]: 29.5 µM
- IC50 [12]: 7.33 µM
- IC90 [12]: 24.4 µM
- IC50 [13]: 18.6 µM
- IC90 [13]: 29.8 µM

Compound: O=C(c1ccccc1)N1C=C(c2cc3ncccc3[nH]2)CCC1
- IC50 [1]: 64 µM
- IC50 [2]: 64 µM
- IC90 at 72 h [3]: 64 µM
- CLint scaled at 0.5 h, 0.5 µM [4]: ≥ 257 mL/min/kg
- microsomal CLint at 0.5 h, 0.5 µM [4]: 238 µL/min/mg
- CLint scaled at 0.5 h, 0.5 µM [14]: ≥ 3320 mL/min/kg
- microsomal CLint at 0.5 h, 0.5 µM [14]: 1040 µL/min/mg
- logD [5]: 2.96
- selectivity ratio [15]: 73.8
- IC90 at 72 h [6]: 64 µM
- Papp [7]: 2.99 ×10⁻⁶ cm/s
- selectivity ratio [8]: 1.84
- IC50 [10]: 0.866 µM
- IC90 [10]: 16 µM
- IC50 [11]: 64 µM
- IC90 [11]: 64 µM
- IC50 [12]: 64 µM
- IC90 [12]: 64 µM
- IC50 [13]: 34.9 µM
- IC90 [13]: 64 µM

Compound: O=C(c1ccc(F)cc1)N1CCCC(c2cc3nc(N4CCCC4)ccc3[nH]2)C1 (centres undefined)
- IC50 [1]: 48.7 µM
- IC50 [2]: 45.3 µM
- IC90 at 72 h [3]: 64 µM
- CLint scaled at 0.5 h, 0.5 µM [4]: 92.5 mL/min/kg
- microsomal CLint at 0.5 h, 0.5 µM [4]: 50.1 µL/min/mg
- CLint scaled at 0.5 h, 0.5 µM [14]: 1960 to 2410 mL/min/kg
- microsomal CLint at 0.5 h, 0.5 µM [14]: 441 to 444 µL/min/mg
- logD [5]: 3.45
- selectivity ratio [15]: 5.86
- IC90 at 72 h [6]: 59.7 µM
- selectivity ratio [16]: 6.07
- Papp [7]: 0.152 to 0.228 ×10⁻⁶ cm/s
- fraction unbound at 0.5 h, 0.5 µM [9]: 0.586 to 0.722
- IC50 [10]: 8.33 µM
- IC90 [10]: 31 µM
- IC50 [11]: 43.4 µM
- IC90 [11]: 60.8 µM
- IC50 [12]: 8.03 µM
- IC90 [12]: 14.1 µM
- IC50 [13]: 41.8 µM
- IC90 [13]: 59.6 µM

Compound: CC(C)c1cc(C(=O)N2CCCC(O)(c3cc4ncccc4[nH]3)C2)on1 (centres undefined)
- IC50 [1]: 56.5 to 64 µM
- IC50 [2]: 64 µM
- IC90 at 72 h [3]: 64 µM
- CLint scaled at 0.5 h, 0.5 µM [4]: 31 to 38.5 mL/min/kg
- microsomal CLint at 0.5 h, 0.5 µM [4]: 23 to 26.6 µL/min/mg
- CLint scaled at 0.5 h, 0.5 µM [14]: 616 to 2560 mL/min/kg
- microsomal CLint at 0.5 h, 0.5 µM [14]: 155 to 600 µL/min/mg
- logD [5]: 2.26
- selectivity ratio [15]: 1.9
- IC90 at 72 h [6]: 64 µM
- selectivity ratio [8]: 1.14
- IC50 [10]: 8.35 to 58.5 µM
- IC90 [10]: 15.6 to 64 µM
- IC50 [11]: 64 µM
- IC90 [11]: 64 µM
- IC50 [12]: 51.8 to 64 µM
- IC90 [12]: 64 µM
- IC50 [13]: 49.3 to 64 µM
- IC90 [13]: 64 µM

Compound: O=C(c1cc(C(F)(F)F)no1)N1CCCC(c2cc3ncc(Br)cc3[nH]2)C1 (centres undefined)
- IC50 [1]: 64 µM
- IC50 [2]: 64 µM
- IC90 at 72 h [3]: 64 µM
- CLint scaled at 0.5 h, 0.5 µM [4]: 193 mL/min/kg
- microsomal CLint at 0.5 h, 0.5 µM [4]: 87.8 µL/min/mg
- CLint scaled at 0.5 h, 0.5 µM [14]: 2800 mL/min/kg
- microsomal CLint at 0.5 h, 0.5 µM [14]: 431 µL/min/mg
- logD [5]: 4.27
- IC90 at 72 h [6]: 64 µM
- selectivity ratio [16]: 2.8
- Papp [7]: 7.99 ×10⁻⁶ cm/s
- fraction unbound at 0.5 h, 0.5 µM [9]: 0.491
- IC50 [10]: 64 µM
- IC90 [10]: 64 µM
- IC50 [11]: 64 µM
- IC90 [11]: 64 µM
- IC50 [12]: 22.9 µM
- IC90 [12]: 62.7 µM
- IC50 [13]: 57 µM
- IC90 [13]: 64 µM
